Test results taken from patent US20210403435A1, “HERBICIDAL COMPOUNDS” (SYNGENTA CROP PROTECTION AG, priority 2018, published 2021).

Assays:
Assay in all cases: Post-emergence efficacy, glasshouse, evaluated after 13 days
Type in all cases: in vivo
Lolium perenne (LOLPE) = conditions: Lolium perenne, 312 h; post-emergence application, 500 g/Ha, evaluated after 13 days; read-out: Control of weed species LOLPE (100=total damage to plant; 0=no damage to plant)
Procedure, shortened: (§1)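 Injury assessed 13 days after a post-emergence spray, 0 = no damage and 100 = total damage. Spray liquid: compound in acetone/IF50 (Emulsogen EL360, N-methylpyrrolidone, Dowanol DPM), diluted with 0.25% or 1% sodium lauryl ether sulphate plus 1% ammonium sulphate.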

[1] = system: Digitaria sanguinalis (DIGSA); conditions: Digitaria sanguinalis, 312 h; post-emergence application, 500 g/Ha, evaluated after 13 days; read-out: Control of weed species DIGSA (100=total damage to plant; 0=no damage to plant)
Procedure, shortened: as §1

[2] = system: Amaranthus palmeri (AMAPA); conditions: Amaranthus palmeri, 312 h; post-emergence application, 500 g/Ha, evaluated after 13 days; read-out: Control of weed species AMAPA (100=total damage to plant; 0=no damage to plant)
Procedure, shortened: as §1

[3] = system: Chenopodium album (CHEAL); conditions: Chenopodium album, 312 h; post-emergence application, 500 g/Ha, evaluated after 13 days; read-out: Control of weed species CHEAL (100=total damage to plant; 0=no damage to plant)
Procedure, shortened: as §1

[4] = system: Euphorbia heterophylla (EPHHL); conditions: Euphorbia heterophylla, 312 h; post-emergence application, 500 g/Ha, evaluated after 13 days; read-out: Control of weed species EPHHL (100=total damage to plant; 0=no damage to plant)
Procedure, shortened: as §1

Eleusine indica (ELEIN) = conditions: Eleusine indica, 312 h; post-emergence application, 500 g/Ha, evaluated after 13 days; read-out: Control of weed species ELEIN (100=total damage to plant; 0=no damage to plant)
Procedure, shortened: as §1

[5] = system: Echinochloa crus-galli (ECHCG); conditions: Echinochloa crus-galli, 312 h; post-emergence application, 500 g/Ha, evaluated after 13 days; read-out: Control of weed species ECHCG (100=total damage to plant; 0=no damage to plant)
Procedure, shortened: as §1

[6] = system: Ipomoea hederacea (IPOHE); conditions: Ipomoea hederacea, 312 h; post-emergence application, 500 g/Ha, evaluated after 13 days; read-out: Control of weed species IPOHE (100=total damage to plant; 0=no damage to plant)
Procedure, shortened: as §1

Setaria faberi (SETFA) = conditions: Setaria faberi, 312 h; post-emergence application, 500 g/Ha, evaluated after 13 days; read-out: Control of weed species SETFA (100=total damage to plant; 0=no damage to plant)
Procedure, shortened: as §1

Structure (SMILES) | pest or weed control at 500 g/ha (Lolium perenne (LOLPE)) | pest or weed control at 500 g/ha [1] | pest or weed control at 500 g/ha [2] | pest or weed control at 500 g/ha [3] | pest or weed control at 500 g/ha [4] | pest or weed control at 500 g/ha (Eleusine indica (ELEIN)) | pest or weed control at 500 g/ha [5] | pest or weed control at 500 g/ha [6] | pest or weed control at 500 g/ha (Setaria faberi (SETFA))
C#CCNC(=O)c1cc[n+](CCC(=O)O)nc1 [Compound A17] | 70% | 100% | 100% | 100% | 90% | 100% | 90% | 100% | 90%
CCC1(NC(=O)c2cc[n+](CCC(=O)O)nc2)CC1 [Compound A134] | 90% | 100% | 100% | 90% | 40% | 90% | 100% | 20% | 60%
O=C(NC1CC1)c1cc[n+](CCCOS(=O)(=O)[O-])nc1 [Compound A126] | 50% | 40% | 10% | 60% | 60% | 40% | 60% | 50% | 70%
CC(C)N(C(=O)c1cc[n+](CCC(=O)O)nc1)C(C)C [Compound A32] | 10% | 20% | 50% | 20% | 40% | 10% | 30% | 10% | 30%
CC1(NC(=O)c2cc[n+](CCC(=O)O)nc2)CC1 [Compound A92] | 90% | 100% | 100% | 100% | 100% | 90% | 80% | 50% | 100%
N#Cc1ccc(CNC(=O)c2cc[n+](CCC(=O)O)nc2)cc1 [Compound A96] | 20% | 20% | 100% | 80% | 100% | 50% | 20% | 40% | 30%
COC(=O)CC[n+]1ccc(C(=O)Nc2nccs2)cn1 [Compound A42] | 10% | 10% | 20% | 40% | 60% | 10% | 10% | 10% | 10%
CNS(=O)(=O)CCNC(=O)c1cc[n+](CCC(=O)O)nc1 [Compound A111] | 70% | 100% | 100% | 90% | 90% | 100% | 90% | 40% | 100%
COC(=O)CC[n+]1ccc(C(=O)N(C)C)cn1 [Compound A2] | 20% | 50% | 10% | 10% | 50% | 10% | 30% | 20% | 30%
CCNC(=O)c1cc[n+](CCNS(=O)(=O)[O-])nc1 [Compound A81] | 90% | 90% | 100% | 100% | 100% | 100% | 100% | 90% | 100%
